Data set [1] can be described thus: Solubility assessment experiments in organic solvents.
Method: (§1) Solubility assessment experiments were carried out in a variety of solvents followed by storage in a climate chamber for 48 to 72 hours at 40 degrees centigrade and 75% relative humidity.
Data set [2] in a line: Storage of samples under ambient conditions, form assigned by XRPD. Type of data set: physicochemical.
A short description of data set [3]: Stability study in climate chamber (48-72 h, 40° C./75% RH), form assigned by XRPD. The following applies: for XRPD Form c: form assigned after the stability studies / XRPD Form b: form assigned after the stability studies: at 40° C./75% RH; for XRPD Form b: form assigned after the stability studies: samples from anti-solvent addition, label = form before stability.
Method: as §1

The mark [4] stands for this setting: 48-72 H, samples from cooling-evaporative crystallization, Table 6, label = form after recrystallization.
Setting [5] is: 1.5-2 weeks ambient, solvent-drop grinding, Table 8, label = form after grinding.
[6] abbreviates: 46-72 H, samples from solvent-drop grinding, Table 8, label = form after grinding.
The mark [7] stands for this setting: 1-1.5 weeks ambient, cooling-evaporative crystallization, Table 6, label = form after recrystallization.
[8] abbreviates: 1-1.5 weeks ambient, cooling-evaporative crystallization, Table 7, label = form after recrystallization.
Where [9] appears, read: 1-1.5 weeks ambient, slurry conversion, Table 9, label = form after slurry.
The mark [10] stands for this setting: 48-72 H, samples from slurry conversion, Table 9, label = form after slurry.
[11] abbreviates: 48-72 H, samples from cooling-evaporative crystallization, Table 7, label = form after recrystallization.

16 molecules from patent US20140271604A1, “HDAC Inhibitor Polymorphic Forms and Methods of Use” (priority 2013, published 2014) can be followed below.

Consider `CC(C)C(C(=O)Nc1ccc(C(=O)NO)cc1)c1ccccc1` (stereo not drawn) [Form A + Am], for which, in data set [1] (Table 1, solvent Amyl Ether), the “Concentration” value was below 1000 µg/mL. Moreover, the “XRPD Form b: form assigned after storage under ambient conditions” value (from here on “XRPD Form b: form assigned after storage”) in data set [2] (1-1.5 weeks ambient, cooling-evaporative crystallization, Table 6, label = form after recrystallization, experiment ML13, solvent 1 Butyl Acetate) is reported as “Form U1 + Am*”; in data set [2] (1-1.5 weeks ambient, cooling-evaporative crystallization, Table 6, label = form after recrystallization, experiment ML14, solvent 1 Chlorobenzene) it was “Form A_wet**”. The “XRPD Form c: form assigned after the stability studies” value (shortened to “XRPD Form c: form assigned”) in data set [3] (setting [4]) is reported as “Form A + Am*”.

Turning to `CC(C)[C@H](C(=O)Nc1ccc(C(=O)NO)cc1)c1ccccc1` [Form A_wet], the “Concentration” value in data set [1] (Table 1, solvent Hexafluorobenzene) is below 1000 µg/mL. The “XRPD Form b: form assigned after storage” value in data set [2] (1-1.5 weeks ambient, cooling-evaporative crystallization, Table 6, label = form after recrystallization, experiment ML7, solvent 1 Dichloroethane) is recorded as “Form A”; in data set [2] (1-1.5 weeks ambient, cooling-evaporative crystallization, Table 6, label = form after recrystallization, experiment ML8, solvent 1 Fluorbenzene), “Form A_wet**”; in data set [2] (1-1.5 weeks ambient, cooling-evaporative crystallization, Table 6, label = form after recrystallization, experiment ML32, solvent 1 Heptane, N-) it was “Form U1 + Am*”; in data set [2] (setting [5]), “Form A_wet**”. Besides, in data set [3] (setting [6]), the “XRPD Form c: form assigned” value was “Form A”. Further, the “XRPD Form b: form assigned after the stability studies” value in data set [3] (48-72 H, Table 3) is given as “Form A + Am*”.

With `CC(C)C(C(=O)Nc1ccc(C(=O)NO)cc1)c1ccccc1` (stereo not drawn) [Form A + Form B1], in data set [1] (Table 2, solvent Acetone), the “Concentration” value was determined as 108900 µg/mL. The “XRPD Form b: form assigned after storage” value was “Form B1_wet**” in data set [2] (setting [7]) and “Form A_wet**” in data set [2] (setting [5]). Further, the “XRPD Form c: form assigned” value was “Form A” in data set [3] (setting [6]) and “Form A_wet**” in data set [3] (setting [4]).

For `CC(C)[C@H](C(=O)Nc1ccc(C(=O)NO)cc1)c1ccccc1` [Form B1_wet], in data set [1] (Table 2, solvent Isophorone), the “Concentration” value came to 243700 µg/mL. The entries for the “XRPD Form b: form assigned after storage” value in data set [2] (setting [8]) and in data set [2] (setting [9]) were “Form B1_wet**” and “Form B1”, respectively. For the same molecule, the “XRPD Form c: form assigned” value in data set [3] (setting [10]) was “Form A5a”.

Consider `CC(C)[C@H](C(=O)Nc1ccc(C(=O)NO)cc1)c1ccccc1` [Form C, (S)—N-hydroxy-4-(3-methyl-2-phenylbutanamido)benzamide], for which the “Concentration” value in data set [1] (Table 2, solvent Dimethyl Sulfoxide) came out at 472500 µg/mL.

Regarding `CC(C)[C@H](C(=O)Nc1ccc(C(=O)NO)cc1)c1ccccc1` [Form A, (S)—N-hydroxy-4-(3-methyl-2-phenylbutanamido)benzamide], the “Concentration” value is 18400 µg/mL in data set [1] (Table 2, solvent Amyl Ether); 20300 µg/mL in data set [1] (Table 2, solvent Dimethyl-4-heptanone 2,6-); 21400 µg/mL in data set [1] (Table 2, solvent Hexafluorobenzene); 21200 µg/mL in data set [1] (Table 2, solvent Nitromethane); 18800 µg/mL in data set [1] (Table 2, solvent Toluene); 20600 µg/mL in data set [1] (Table 2, solvent Trifluoroethanol, 2,2,2-). In addition, the “XRPD Form b: form assigned after storage” value in data set [2] (setting [7]) is reported as “Form A”; in data set [2] (setting [8]) it was “Form A”; in data set [2] (1.5-2 weeks ambient, solvent-drop grinding, Table 8, label = form after grinding, ground with a drop of Octanol-1), “Form A”; in data set [2] (1.5-2 weeks ambient, solvent-drop grinding, Table 8, label = form after grinding, ground with a drop of Propyl acetate), “Form A5a”. Moreover, the “XRPD Form c: form assigned” value in data set [3] (setting [6]) and in data set [3] (setting [11]) was “Form A” in each case. Further, the “XRPD Form b: form assigned after the stability studies” value in data set [3] (48-72 H, Table 3) is given as “Form A”.

On to `CC(C)[C@H](C(=O)Nc1ccc(C(=O)NO)cc1)c1ccccc1` [Am_oily], for which the “Concentration” value in data set [1] (Table 1, solvent NMP) came to 482500 µg/mL. Besides, the “XRPD Form b: form assigned after the stability studies” value in data set [3] (48-72 H, Table 5) is on record as “Form A”.

On to `CC(C)[C@H](C(=O)Nc1ccc(C(=O)NO)cc1)c1ccccc1` [Form D1_wet], for which the “XRPD Form b: form assigned after storage” value in data set [2] (setting [7]) is given as “Form D1_wet**”; in data set [2] (setting [8]), “Form D1_wet”. Besides, the “XRPD Form b: form assigned after the stability studies” value in data set [3] (48-72 H, Table 3) was “Form D2”. Besides, the “XRPD Form c: form assigned” value is reported as “Form A_wet**” in data set [3] (setting [4]) and “Form A + Am*” in data set [3] (setting [11]).

In the case of `CC(C)[C@H](C(=O)Nc1ccc(C(=O)NO)cc1)c1ccccc1` [Form A7, (S)—N-hydroxy-4-(3-methyl-2-phenylbutanamido)benzamide], the “XRPD Form b: form assigned after storage” value in data set [2] (setting [8]) was “Form A7”. Moreover, the “XRPD Form c: form assigned” value in data set [3] (setting [11]) is “Form A_plus”.

For the molecule `CC(C)C(C(=O)Nc1ccc(C(=O)NO)cc1)c1ccccc1` (stereo not drawn) [Form A + Form F1], in data set [2] (setting [5]), the “XRPD Form b: form assigned after storage” value is “Form A”. In addition, in data set [3] (setting [6]), the “XRPD Form c: form assigned” value was “Form A”.

In the case of `CC(C)[C@H](C(=O)Nc1ccc(C(=O)NO)cc1)c1ccccc1` [Form A3, (S)—N-hydroxy-4-(3-methyl-2-phenylbutanamido)benzamide], the “XRPD Form b: form assigned after storage” value is recorded as “Form L2” in data set [2] (setting [8]) and “Form A” in data set [2] (setting [5]). The “XRPD Form c: form assigned” value in data set [3] (setting [6]) is reported as “Form A”.

Regarding `CC(C)[C@H](C(=O)Nc1ccc(C(=O)NO)cc1)c1ccccc1` [Form B1, (S)—N-hydroxy-4-(3-methyl-2-phenylbutanamido)benzamide], the “Concentration” value in data set [1] (Table 1, solvent Dimethyl-4-heptanone 2,6-) stood at 2000 µg/mL; in data set [1] (Table 2, solvent Chloroform) it was 20800 µg/mL. The “XRPD Form b: form assigned after storage” value in data set [2] (setting [8]) is “Form B1”. Moreover, the “XRPD Form c: form assigned” value in data set [3] (setting [11]) is recorded as “Form B1”. For the same molecule, the “Stability after storage in a climate chamber” value in data set [3] (48 to 72 hours at 40 degrees centigrade and 75% relative humidity) is recorded as “exhibited a particular degree of stability”.

As to `CC(C)[C@H](C(=O)Nc1ccc(C(=O)NO)cc1)c1ccccc1` [Form H1, (S)—N-hydroxy-4-(3-methyl-2-phenylbutanamido)benzamide], the “XRPD Form b: form assigned after storage” value in data set [2] (setting [7]) and in data set [2] (setting [9]) was “Form A” in each case. In addition, the “XRPD Form c: form assigned” value in data set [3] (setting [4]) and in data set [3] (setting [10]) was “Form A” throughout.

`CC(C)[C@H](C(=O)Nc1ccc(C(=O)NO)cc1)c1ccccc1` [Form D1, (S)—N-hydroxy-4-(3-methyl-2-phenylbutanamido)benzamide]: the “Concentration” value in data set [1] (Table 2, solvent Nitrobenzene) was determined as 19700 µg/mL. Besides, the “XRPD Form b: form assigned after storage” value in data set [2] (setting [8]) and in data set [2] (setting [5]) was “Form D1” each time. Also, the “XRPD Form c: form assigned” value in data set [3] (setting [6]) and in data set [3] (setting [11]) was “Form A” in each case. The “XRPD Form b: form assigned after the stability studies” value in data set [3] (48-72 H, Table 5) is listed as “Form D2 + Am*”.

On to `CC(C)C(C(=O)Nc1ccc(C(=O)NO)cc1)c1ccccc1` (stereo not drawn) [Form B1 + Form D1], for which the “Concentration” value in data set [1] (Table 2, solvent Dioxane, 1,4-) was 32300 µg/mL.

For `CC(C)[C@H](C(=O)Nc1ccc(C(=O)NO)cc1)c1ccccc1` [Form A8, (S)—N-hydroxy-4-(3-methyl-2-phenylbutanamido)benzamide], in data set [2] (setting [8]), the “XRPD Form b: form assigned after storage” value is “Form A8”. Besides, the “XRPD Form c: form assigned” value in data set [3] (setting [11]) is “Form A”.
